The values below come from patent US20220153732A1, “PROTEIN SECRETION INHIBITORS” (KEZAR LIFE SCIENCES, priority 2019, published 2022).

Read-outs that look alike come from different tables or passages of the source.

Type in all cases: cell-based
Assay [1] relates to human multiple myeloma cell line U266B1. The experiment in a line: U266 Cell Viability Assay. Conditions: read-out: 48 hr U266 Viability Celltiter-Glo: Mean EC50. In outline:
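U266B1 myeloma cells treated with compound dilutions in DMSO/media for 48 h at 37 °C, 5% CO2. Viability read by CellTiter-Glo luminescence. Stereochemically undefined structures were tested as stereoisomer mixtures.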
Background: ATP-based viability assays read luminescence as a measure of living cells.

Assay [2] deals with IL-2-FL/Gaussia Luciferase. The experiment in a line: Dox Induced IL2-FL-Gluc Assay. Conditions: 293FRT/TO cells, read-out: 24 hr Dox Inducible IL2FLGIuc 293FRT/TO: Mean IC50. Summed up:
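Stable T-REx cell line expressing doxycycline-inducible IL-2-FL/Gaussia luciferase cDNA, plated the day before assay. Compound dilutions in DMSO/media containing doxycycline added and incubated at 37° C., 5% CO2. Unspecified stereochemistry means data refer to a stereoisomer mixture.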

Assay [3] relates to HER3-ss+4aa/Gaussia Luciferase. The experiment in a line: Dox-Induced Her3-ss-Gluc Assay. Conditions: 293FRT/TO cells, read-out: 24 hr Dox Inducible Her3(ss + 4)Gluc 293FRT/TO: Mean IC50. In outline: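 Stable T-REx cell line carrying a doxycycline-regulated HER3-ss+4aa/Gaussia luciferase insert, plated the day before assay. Compound dilutions in DMSO/media with doxycycline added, then incubated at 37° C., 5% CO2. Stereoisomer mixtures tested where stereochemistry is not drawn.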

Assay [4] deals with TNFα-FL/Gaussia Luciferase. The experiment in a line: Dox Induced TNFα-FL-Gluc Assay. Conditions: 293FRT/TO cells, read-out: 24 hr Dox Inducible TNFaFLGluc 293FRT/TO: Mean IC50. Summed up:
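A stable T-REx cell line carrying doxycycline-inducible TNFα-FL/Gaussia luciferase was plated the day before assay. Compound dilutions in DMSO/media containing doxycycline were then added and incubated at 37° C, 5% CO2.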

The test system of assay [5] is human multiple myeloma cell line NCI-H929. The experiment in a line: H929 Cell Viability Assay. The note with it: read-out: 48 hr H929 Viability Celltiter-Glo: Mean EC50. The method, then: Plates were incubated at 37° C., 5% CO2 for 48 hours. After 48 hours, Celltiter-Glo® (Promega) was added to each well and luciferase signal was quantified using Tecan Infinite M1000 Pro for cell viability determination.
For chemical structures that include one or more stereoisomers, but are illustrated without indicating stereochemistry, the assay data refers to a mixture of stereoisomers.

Assay [6] concerns PD1-ss+10aa/Gaussia Luciferase. The experiment in a line: Dox-Induced PD1-ss-Gluc Assay. Conditions: 293FRT/TO cells, read-out: 24 hr Dox Inducible PD1ssGluc 293FRT/TO: Mean IC50. In outline: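 Stable cell line carrying PD1-ss+10aa/Gaussia luciferase cDNA under T-REx (doxycycline-inducible) control, plated the day before assay. Compound dilutions in DMSO/media containing doxycycline added and incubated at 37° C, 5% CO2. Undefined stereocentres: data refer to stereoisomer mixtures.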

Where [7] appears, read: U-266, 48 hr, U266B1 cells, Celltiter-Glo.
The mark [8] stands for this setting: 24 hr doxycycline induction, Gaussia luciferase signal.
Where [9] appears, read: 48 hr, NCI-H929 cells, Celltiter-Glo.

As for `Cc1sc(NC(=O)c2cccn2Cc2ccncc2)nc1C(C)(C)OC(C)C` [Compound A37, N-(4-(2-isopropoxypropan-2-yl)-5-methylthiazol-2-yl)-1-(pyridin-4-ylmethyl)-1H-pyrrole-2-carboxamide], the EC50 in assay [1] (setting [7]) and in assay [5] (setting [9]) was > 25 µM in each case. For the same molecule, the IC50 in assay [2] (setting [8]) is 1.07 µM; in assay [3] (setting [8]) it was 1.24 µM; in assay [4] (setting [8]), 12.1 µM; in assay [6] (setting [8]), 0.703 µM.

Turning to `O=C(Nc1nc([C@H]2CC[C@@H]2c2ccccc2)cs1)c1cccn1Cc1ccncc1` [Compound A331], the values for the EC50 in assay [1] (setting [7]) and in assay [5] (setting [9]) were > 25 µM and 4.72 µM, respectively. The IC50 in assay [2] (24 hr, doxycycline-induced) stood at 0.178 µM; in assay [3] (24 hr, doxycycline-induced), 0.082 µM; in assay [4] (24 hr, doxycycline-induced), 0.423 µM; in assay [6] (24 hr, doxycycline-induced), 0.064 µM.

Turning to `CC(C)c1csc(NC(=O)[C@H]2CCCN2C(=O)c2ccncc2)n1` [Compound B21, (R)-1-isonicotinoyl-N-(4-isopropylthiazol-2-yl)pyrrolidine-2-carboxamide], the EC50 in assay [1] (setting [7]) and in assay [5] (setting [9]) was > 25 µM throughout. In addition, the IC50 is > 25 µM in assay [2] (24 hr, doxycycline-induced); > 25 µM in assay [3] (24 hr, doxycycline-induced); > 25 µM in assay [4] (24 hr, doxycycline-induced); > 25 µM in assay [6] (24 hr, doxycycline-induced).

As to `CCC(C)c1csc(NC(=O)c2cccn2Cc2ccncc2)n1` (stereo not drawn) [Compound A23], the EC50 in assay [1] (setting [7]) and in assay [5] (setting [9]) was > 25 µM each time. Besides, the IC50 was determined as 0.429 µM in assay [2] (setting [8]), 0.447 µM in assay [3] (setting [8]), 5.47 µM in assay [4] (setting [8]) and 0.29 µM in assay [6] (setting [8]).

Consider `CC(C)OC(C)(C)c1csc(NC(=O)c2cccn2Cc2ccnc3ccccc23)n1` [Compound A90, N-(4-(2-isopropoxypropan-2-yl)thiazol-2-yl)-1-(quinolin-4-ylmethyl)-1H-pyrrole-2-carboxamide], for which the figures for the EC50 in assay [1] (setting [7]) and in assay [5] (setting [9]) were > 25 µM and 16.9 µM, respectively. In addition, the IC50 in assay [2] (setting [8]) was > 25 µM; in assay [3] (setting [8]), > 25 µM; in assay [4] (setting [8]), > 25 µM; in assay [6] (setting [8]) it was 10 µM.

Take `COc1ccccc1C#Cc1csc(NC(=O)c2cccn2Cc2ccncc2)n1` [Compound A141]: the EC50 in assay [1] (setting [7]) came out at 13.1 µM; in assay [5] (setting [9]) it was 7.72 µM. For the same molecule, the IC50 in assay [2] (setting [8]) was found to be 1.58 µM; in assay [3] (setting [8]), 0.651 µM; in assay [4] (setting [8]), 1.82 µM; in assay [6] (setting [8]), 0.277 µM.

On to `O=C(Nc1nc(C2=CCN(Cc3ccccc3)CC2)cs1)c1cccn1Cc1ccncc1` [Compound A259], for which the EC50 is > 25 µM in assay [1] (U-266, 48 h) and > 25 µM in assay [5] (NCI-H929, 48 h). For the same molecule, the IC50 was 10.5 µM in assay [2] (setting [8]), 7.11 µM in assay [3] (setting [8]), > 25 µM in assay [4] (setting [8]) and 0.516 µM in assay [6] (setting [8]).

For `O=C(Nc1nc([C@@H]2CCC[C@@H](c3ccccc3)C2)cs1)c1cccn1Cc1ccncc1` [Compound A271], the half-maximal effective concentration (EC50) in assay [1] (setting [7]) is > 25 µM; in assay [5] (setting [9]) it was 15.5 µM. Moreover, the IC50 in assay [2] (setting [8]) was found to be 0.951 µM; in assay [3] (setting [8]) it was 0.912 µM; in assay [4] (setting [8]), 2.87 µM; in assay [6] (setting [8]), 0.316 µM.

Regarding `CC(C)OC(C)(C)c1csc(NC(=O)c2cccn2Cc2ccc(C#N)cc2)n1` [Compound A80, 1-(4-cyanobenzyl)-N-(4-(2-isopropoxypropan-2-yl)thiazol-2-yl)-1H-pyrrole-2-carboxamide], the EC50 in assay [1] (setting [7]) is > 25 µM; in assay [5] (setting [9]) it was 21.9 µM. The IC50 in assay [2] (setting [8]) is 3.53 µM; in assay [3] (setting [8]) it was 7.88 µM; in assay [4] (setting [8]), > 25 µM; in assay [6] (setting [8]), 4.22 µM.

Turning to `O=C(Nc1nc(/C=C/C2CCCCC2)cs1)c1cccn1Cc1ccncc1` [Compound A152, N-(4-(2-cyclohexylvinyl)thiazol-2-yl)-1-(pyridin-4-ylmethyl)-1H-pyrrole-2-carboxamide], the EC50 in assay [1] (setting [7]) was > 25 µM; in assay [5] (setting [9]), 11 µM. Moreover, the IC50 in assay [2] (setting [8]) is 0.854 µM; in assay [3] (setting [8]), 0.28 µM; in assay [4] (setting [8]), 1.58 µM; in assay [6] (setting [8]), 0.085 µM.

In general, EC50 refers to the concentration that produces a half-maximal response.
